Patent US7838496B2, “Template-fixed peptidomimetics as medicaments against HIV and cancer” (Polyphor AG/Ltd., priority 2003, dated 2010)
*1 amine or outer side, *2 acyl side, *3 side chain or, on linkers, in order; H or OH if unused. Where a SMILES comes first, the peptide text is derived from it. Bridges are numbered along the chain shown (N, C = ends). [ ]: non-standard residue; d: D form. NHCH2(1,3-C6H4)CH2CO = O=C(Cc1cccc(CN[*:1])c1)[*:2]; 2Nal = N[C@@H](Cc1ccc2ccccc2c1)C(=O)O; Cit = NC(=O)NCCC[C@H](N)C(=O)O; Gly(N(CH2)3NH2) = NCCCNCC(=O)O

Experiments:
[1] = tested on: human red blood cells (hRBC); type: cell-based; details: red cells of human, 1 h
Experimental: The peptides were tested for their hemolytic activity against human red blood cells (hRBC). Fresh hRBC were washed three times with phosphate buffered saline (PBS) by centrifugation for 10 min at 2000×g. Peptides at a concentration of 100 μM were incubated with 20% v/v hRBC for 1 hour at 37-C. The final erythrocyte concentration was approximately 0.9×10^9 cells per mL. A value of 0% resp. 100% cell lysis was determined by incubation of the hRBC in the presence of PBS alone and respectively 0.1% Triton X-100 in H2O. The samples were centrifuged and the supernatant was 20-fold diluted in PBS buffer and the optical density (OD) of the sample at […] was measured. The 100% lyses value (OD540H2O) gave an OD540 of approximately 1.3-1.8. Percent hemolysis was calculated as follows: (OD540peptide/OD540H2O)×100%.

[2] = in vitro; type: cell-based
Experimental: The cytotoxicity of the peptides to HELA cells (Acc57) and COS-7 cells (CRL-1651) was determined using the MTl reduction assay [see ref. 6 and 7, below]. Briefly the method was as follows: HELA cells and COS-7 cells were seeded at 7.0·10^3 and, respectively, 4.5·10^3 cells per well and grown in 96-well microtiter plates for 24 hours at 37° C. at 5% CO2. At this point, time zero (Tz) was determined by MTT reduction (see below). The supernatant of the remaining wells was discarded and fresh medium and the peptides in serial dilutions of 12.5, 25 and 50 μM were pipeted into the wells. Each peptide concentration was assayed in triplicate. Incubation of the cells was continued for 48 hours at 37° C. at 5% CO2. Wells were then washed once with PBS and subsequently 100 μl MTT reagent (0.5 mg/mL in medium RPMI1640 and, respectively, DMEM) was added to the wells. This was incubated at 37° C. for 2 hours and subsequently the medium was aspirated and 100 μl isopropanol was added to each well. The absorbance at 595 nm of the solubilized product was measured (OD595peptide). For each concentration averages were calculated from triplicates. The percentage of growth was calculated as follows: (OD595peptide-OD595Tz-OD595Empty well)/(OD595Tz-OD595Empty well)×100% and was plotted for each peptide concentration.
The LC 50 values (Lethal Concentration, defined as the concentration that kills 50% of the cells) were determined for each peptide by using the trend line function of EXCEL (Microsoft Office 2000) for the concentrations (50, 25, 12.5 and 0 μM), the corresponding growth percentages and the value −50, (=TREND(C50:C0,%50:%0,−50))
(§1) All fine chemicals came from Merck (D)armstadt, Germany).

[3] = tested on: 'CCR5' cells / Hut/4-3 cells co-cultivation; experiment: FIGS-Assay (co-cultivated cell cultures, beta-galactosidase/ONPG read-out); type: cell-based; details: 48 hours of co-cultivation
Experimental: The assay was performed according to ref. 5, below. Stock dilutions of the peptides (10 mM) were prepared by dissolving in 10 mM Tris-HCl at room temperature. Stock solutions were kept at +4° C., light protected. Working dilutions were prepared extemporaneously by serial dilution in Phosphate Buffered Saline (PBS) and added in a final volume of 10 μL directly to the cell cultures. After 48 hours of co-cultivation the cultures were rinsed with PBS and then exposed to glutaraldehyde/formaldehyde (0.2%/2%) in PBS for five minutes. For photometric quantification the fixed cultures were subsequently incubated with ortho-nitro-phenyl-galactopyranoside (ONPG) as a O-galactosidase substrate, which was enzymatically converted into the chromophore ortho-nitrophenol (ONP). The read out is directly obtained by measuring optical density of wells at 405 nm in an IEMS 96 well-plate reader.
as §1

[4] = target: T1, CXCR4 (Homo sapiens, UniProt P61073); experiment: Ca2+ assay: CXCR4 antagonizing activity of the peptides; type: cell-based; details: CXCR4 transfected pre-B cells, Fura-2 fluorescence, 37° C.
T1 construct: expressed in transfected cells
Experimental: 2.2. Ca^2+− assay: CXCR4Antagonizing Activity of the Peptides
3-4 Mio CXCR4 transfected pre-B cells [see references 1, 2 and 3, below] per measurement were resuspended in 200 μl MSB (20 mM 4-(2-Hyddroxyethyl)-piperazin-1-ethansulfonic acid (HEPES), 136 mM NaCl, 4.8 mM KCl and 1 mM CaCl2) containing 5 mM D-Glucose and were loaded with 0.75 μl of 1 mM Fura-2-acetoxymethylester for 17 minutes at 37° C. The cells were washed free from Fura-2-AM with a platelet centrifuge and resuspended in 800 R1 MSB containing 5 mM D-Glucose. The peptides to be administered were diluted to a 100 fold end concentration in MSB/0.2% PPL, and 8 pl were injected. [Ca^2+ ]i-dependent fluorescence change in response to single or sequential stimulation with the peptide was recorded with a fluorimeter at an excitation wavelength of 340 nm and an end emission wavelength of 510 nm [see ref. 4, below]. Measurements were done under continuous stirring at 37° C. The signal intension was calibrated with 3 mM4 CaCl2/1 nM lonomycin (maximal fura-2-acetoxymethylester saturation) and […] MnCl2 (minimal Fura-2-acetoxymethylester saturation) and [Ca^2+]i-changes are presented in % fura-2-acetoxymethylester saturation.
MSB: 20 nmM HEPES, 136 mM NaCl, 4.8 mM KCl, 1 mM CaCl2.2H2O, pH 7.4; Osmolarity: 310 mOsm adjusted with NaOH or HCl, adjusted with dH2O or PBS.
MSB plus: 5 mM D-glucose in MSB (50 mg/50 mL).
Fura 2-acetoxymethylester: 1 mM stock solution in dimethylsulfoxide.

[5] = target: CCRF-CEM cells (Homo sapiens, UniProt P61073); details: read-out: IC50 (μM) Cell migration assay; CCRF-CEM cells migrating to 1 nM SDF-1, 4 hours
Sequence of CCRF-CEM cells (P61073 whole entry): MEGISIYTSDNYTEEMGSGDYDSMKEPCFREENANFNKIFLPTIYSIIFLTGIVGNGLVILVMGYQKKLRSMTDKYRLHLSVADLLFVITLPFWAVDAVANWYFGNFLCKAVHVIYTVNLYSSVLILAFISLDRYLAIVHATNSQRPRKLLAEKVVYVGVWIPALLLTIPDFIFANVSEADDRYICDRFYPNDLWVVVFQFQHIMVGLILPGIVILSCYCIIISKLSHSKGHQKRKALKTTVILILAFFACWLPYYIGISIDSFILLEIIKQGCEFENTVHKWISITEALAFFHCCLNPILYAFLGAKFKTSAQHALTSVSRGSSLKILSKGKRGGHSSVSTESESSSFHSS
Experimental: BELA cells and CCRF-CEM cells were maintained in RPMI1640 plus 5% FBS, Pen/Strept and 2 mM L-Glutamine. […] All cell lines were grown at 37° C. at 5% CO2. Cell media, media supplements, PBS-buffer, HEPES, Pen/Strept., L-Glutamine and sera were purchased from Gibco (Pailsey, UK). All fine chemicals came from Merck (D)armstadt, Germany).
Chemotactic Assay (Cell Migration Assay)
The chemotactic response of CCRF-CEM cells to a gradient of stromal cell-derived factor 1 a (SDF-1) was measured using disposable assay plates from Neuroprobe (5 μ pore size) (Gaithersburg, Md.), according to the manufacturer's directions and references therein [especially ref. 8, below]. Briefly, one 175 cm^2 flask was washed once with Dubecco's phosphate buffered saline (DPBS), and trypsinized for 10 minutes or until cells had lifted. The trypsin was neutralized by the addition of fresh medium containing serum and the cells were pelleted, washed once in DPBS, and resuspended at 1-0.5×10^7 cells/ml in RPM!+0.5% bovine serum albumin (BSA). 451 μl of cell suspension were mixed with 5μ of 10-fold concentrated PEM peptide diluted in the same assay medium. 35 μl of this mixture were applied to the top of the assay filter. The cells were allowed to migrate (at 37°) into the bottom chamber of the assay plate containing 1 nM SDF-1. After 4 hours, the filter was removed and MTT was added to the migrated cells to a final concentration of 0.5 mg/ml, and incubated for a further 4 hours. After labeling with MTT, all medium was removed and 100 μl of isopropanol+10 mM HCl were added to the cells. The optical absorbance at 595 nm (ABS595) was read using a Tecan Genios plate reader with Magellan software. The number of cells migrated was determined by comparing ABS595 values against a standard curve generated with a known number of cells in the assay plate and were plotted against SDF-1 concentration to obtain a sigmoidal curve and to determine the IC50 values. The values for IC50 were determined using the Trendline function in Microsoft Excel by fitting a logarithmic curve to the averaged datapoints.

T1 sequence (P61073 whole entry): as above

SMILES	Hemolysis at 100 μM [1]	CC50 [2]	FIGS % inhibition at 200 nM [3]	CC50 at 48 h [2]	IC50 [4]	IC50 [5]	FIGS % inhibition, At 300 nM ([3]; At 300 nM)
N=C(N)NCCC[C@H](NC(=O)[C@@H]1CSSC[C@H](NC(=O)[C@H](Cc2ccc3ccccc3c2)NC(=O)[C@H](CCCNC(=N)N)NC(=O)[C@@H](N)CCCNC(=N)N)C(=O)N[C@@H](Cc2ccc(O)cc2)C(=O)N[C@@H](CCCCN)C(=O)N[C@H](CCCCN)C(=O)N2CCC[C@H]2C(=O)N[C@@H](Cc2ccc(O)cc2)C(=O)N[C@@H](CCCNC(N)=O)C(=O)N1)C(N)=O [Example 1] (H-RR[2Nal]CYK[dK]PY[Cit]CR-NH2; disulfide 4-11; N-terminus assumed)	0.4%	75 µM	–	–	–	–	–
N=C(N)NCCC[C@H](NC(=O)[C@@H]1CSSC[C@H](NC(=O)[C@H](Cc2ccc3ccccc3c2)NC(=O)[C@H](CCCNC(=N)N)NC(=O)[C@@H](N)CCCNC(=N)N)C(=O)N[C@@H](Cc2ccc(O)cc2)C(=O)N[C@@H](CCCNC(=N)N)C(=O)N[C@H](CCCCN)C(=O)N2CCC[C@H]2C(=O)N[C@@H](Cc2ccc(O)cc2)C(=O)N[C@@H](CCCNC(N)=O)C(=O)N1)C(N)=O [Example 2] (H-RR[2Nal]CYR[dK]PY[Cit]CR-NH2; disulfide 4-11)	0.9%	–	3.8%	58 µM	–	–	–
N=C(N)NCCC[C@H](NC(=O)[C@@H]1CSSC[C@H](NC(=O)[C@H](Cc2ccc3ccccc3c2)NC(=O)[C@H](CCCNC(=N)N)NC(=O)[C@@H](N)CCCNC(=N)N)C(=O)N[C@@H](Cc2ccc(O)cc2)C(=O)N[C@@H](CCCCN)C(=O)N[C@H](CCCCN)C(=O)N2CCC[C@H]2C(=O)N[C@@H](CCCNC(=N)N)C(=O)N[C@@H](CCCNC(N)=O)C(=O)N1)C(N)=O [Example 3] (H-RR[2Nal]CYK[dK]PR[Cit]CR-NH2; disulfide 4-11; N-terminus assumed)	0.7%	–	5.7%	52 µM	490 nM	–	–
N=C(N)NCCC[C@H](NC(=O)[C@@H]1CSSC[C@H](NC(=O)[C@H](Cc2ccc3ccccc3c2)NC(=O)[C@H](CCCNC(=N)N)NC(=O)[C@@H](N)CCCNC(=N)N)C(=O)N[C@@H](Cc2ccc(O)cc2)C(=O)N[C@@H](CCCCN)C(=O)N2CCC[C@@H]2C(=O)N2CCC[C@H]2C(=O)N[C@@H](Cc2ccc(O)cc2)C(=O)N[C@@H](CCCNC(=N)N)C(=O)N1)C(N)=O [Example 4] (H-RR[2Nal]CYK[dP]PYRCR-NH2; disulfide 4-11; N-terminus assumed)	0.3%	–	26.0%	> 300 µM	848 nM	–	–
N=C(N)NCCC[C@H](NC(=O)[C@@H]1CSSC[C@H](NC(=O)[C@H](Cc2ccc3ccccc3c2)NC(=O)[C@H](CCCNC(=N)N)NC(=O)[C@@H](N)CCCNC(=N)N)C(=O)N[C@@H](Cc2ccc(O)cc2)C(=O)N[C@@H](CCCNC(=N)N)C(=O)N2CCC[C@@H]2C(=O)N2CCC[C@H]2C(=O)N[C@@H](Cc2ccc(O)cc2)C(=O)N[C@@H](CCCNC(=N)N)C(=O)N1)C(N)=O [Example 5] (H-RR[2Nal]CYR[dP]PYRCR-NH2; disulfide 4-11; N-terminus assumed)	0.7%	–	16.4%	67 µM	132 nM	–	–
N=C(N)NCCC[C@H](NC(=O)[C@@H]1CSSC[C@H](NC(=O)[C@H](Cc2ccc3ccccc3c2)NC(=O)[C@H](CCCNC(=N)N)NC(=O)CNCCCN)C(=O)N[C@@H](Cc2ccc(O)cc2)C(=O)N[C@@H](CCCNC(N)=O)C(=O)N[C@@H](CCCCN)C(=O)N2CCC[C@@H]2C(=O)N2CCC[C@H]2C(=O)N[C@@H](Cc2ccc(O)cc2)C(=O)N[C@@H](CCCNC(=N)N)C(=O)N[C@@H](CCCNC(N)=O)C(=O)N1)C(N)=O [Example 15] (H-[Gly(N(CH2)3NH2)]R[2Nal]CY[Cit]K[dP]PYR[Cit]CR-NH2; disulfide 4-13)	–	–	–	–	–	0.57 µM	–
N=C(N)NCCC[C@H](NC(=O)[C@@H]1CSSC[C@H](NC(=O)[C@H](Cc2ccc3ccccc3c2)NC(=O)[C@H](CCCNC(=N)N)NC(=O)[C@@H](N)CCCNC(=N)N)C(=O)N[C@@H](Cc2ccc(O)cc2)C(=O)N[C@@H](CCCNC(N)=O)C(=O)N[C@@H](CCCCN)C(=O)N2CCC[C@@H]2C(=O)N2CCC[C@H]2C(=O)N[C@@H](Cc2ccc(O)cc2)C(=O)N[C@@H](CCCNC(=N)N)C(=O)N[C@@H](CCCNC(N)=O)C(=O)N1)C(=O)O [Example 20] (H-RR[2Nal]CY[Cit]K[dP]PYR[Cit]CR-OH; disulfide 4-13)	0.2%	–	–	138 µM	15.5 nM	–	At 300 nM: 100%
N=C(N)NCCC[C@H](NC(=O)[C@@H]1CSSC[C@H](NC(=O)[C@H](Cc2ccc3ccccc3c2)NC(=O)[C@H](CCCNC(=N)N)NC(=O)[C@@H](N)CCCNC(=N)N)C(=O)N[C@@H](Cc2ccc(O)cc2)C(=O)N[C@@H](CCCNC(N)=O)C(=O)N[C@@H](CCCCN)C(=O)N[C@H]2C[C@H]3C(=O)N[C@@H](CC(=O)N[C@@H](Cc4ccc(O)cc4)C(=O)N[C@@H](CCCNC(=N)N)C(=O)N[C@@H](CCCNC(N)=O)C(=O)N1)C(=O)N3C2)C(N)=O [Example 21]	0.8%	–	29.6%	82 µM	–	–	–
N=C(N)NCCC[C@H](NC(=O)[C@@H]1CSSC[C@H](NC(=O)[C@H](Cc2ccc3ccccc3c2)NC(=O)[C@H](CCCNC(=N)N)NC(=O)[C@@H](N)CCCNC(=N)N)C(=O)N[C@@H](Cc2ccc(O)cc2)C(=O)N[C@@H](CCCNC(N)=O)C(=O)N[C@@H](CCCCN)C(=O)NCc2cccc(c2)CC(=O)N[C@@H](Cc2ccc(O)cc2)C(=O)N[C@@H](CCCNC(=N)N)C(=O)N[C@@H](CCCNC(N)=O)C(=O)N1)C(N)=O [Example 22] (H-RR[2Nal]CY[Cit]K[NHCH2(1,3-C6H4)CH2CO]YR[Cit]CR-NH2; disulfide 4-12)	0.1%	–	22.5%	75 µM	80.3 nM	–	–
N=C(N)NCCC[C@H](NC(=O)[C@@H]1CSSC[C@H](NC(=O)[C@H](Cc2ccc3ccccc3c2)NC(=O)[C@H](CCCNC(=N)N)NC(=O)[C@@H](N)CCCNC(=N)N)C(=O)N[C@@H](Cc2ccc(O)cc2)C(=O)N[C@@H](CCCNC(N)=O)C(=O)N[C@@H](CCCCN)C(=O)N2CCC[C@H]2C(=O)N2CCC[C@H]2C(=O)N[C@@H](Cc2ccc(O)cc2)C(=O)N[C@@H](CCCNC(=N)N)C(=O)N[C@@H](CCCNC(N)=O)C(=O)N1)C(N)=O [Example 24] (H-RR[2Nal]CY[Cit]KPPYR[Cit]CR-NH2; disulfide 4-13)	1.1%	–	17.1%	67 µM	100 nM	–	–
